Data on seven compounds can be found in patent US11098072B2, “Alkenyl and beta-substituted phosphonates as antimicrobial agents” (The George Washington University, priority 2017, dated 2021).

The test system of data set [1] is P. falciparum. In words: Growth inhibition against P. falciparum. The format is cell-based. As to conditions: Plasmodium falciparum.
Data set [2] addresses T1, P. falciparum DXR (Plasmodium falciparum, UniProt Q8IKG4).
T1 sequence (Q8IKG4 73-488): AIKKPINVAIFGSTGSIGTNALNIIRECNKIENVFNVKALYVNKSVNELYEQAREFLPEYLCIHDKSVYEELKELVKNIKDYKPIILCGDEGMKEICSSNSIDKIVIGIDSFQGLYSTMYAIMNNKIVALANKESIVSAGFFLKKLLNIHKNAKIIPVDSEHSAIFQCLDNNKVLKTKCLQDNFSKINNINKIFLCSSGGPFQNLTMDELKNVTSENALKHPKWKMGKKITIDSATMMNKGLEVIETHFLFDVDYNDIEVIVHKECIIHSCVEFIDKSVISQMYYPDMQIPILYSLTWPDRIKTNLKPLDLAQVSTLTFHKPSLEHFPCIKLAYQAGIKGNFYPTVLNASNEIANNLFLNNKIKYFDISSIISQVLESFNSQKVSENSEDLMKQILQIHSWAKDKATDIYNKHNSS
In words: Inhibition of P. falciparum DXR enzyme. Type of data set: biochemical.

For a further data set, the system named is Mtb. In words: Mtb growth inhibition (MIC99) in 7H9 and GAST-Fe media. Type of data set: cell-based, M. tuberculosis. The settings on record: Mycobacterium tuberculosis. As to the method: Selected analogs were tested for the growth inhibition against P. falciparum and Mtb in both rich media (7H9) and minimal media (GAST-Fe) following reported procedures.

In a further data set the target is Mtb DXR (Mycobacterium tuberculosis, UniProt P9WNS1). In words: Inhibition of Mtb DXR enzyme. Type of data set: biochemical, M. tuberculosis. The settings on record: percent remaining enzyme activity at 100 μM compound. As to the method: Phosphonic acid salts and prodrugs were evaluated as inhibitors of DXR from Mtb and P. falciparum and the results are shown in Table 6. Initially, the percent remaining enzyme activity was studied using a treatment of each compound at a single concentration of 100 μM. […] In general, the compounds display greater inhibition of DXR from P. falciparum compared with activity against the Mtb homolog.
Chain of Mtb DXR (P9WNS1 whole entry): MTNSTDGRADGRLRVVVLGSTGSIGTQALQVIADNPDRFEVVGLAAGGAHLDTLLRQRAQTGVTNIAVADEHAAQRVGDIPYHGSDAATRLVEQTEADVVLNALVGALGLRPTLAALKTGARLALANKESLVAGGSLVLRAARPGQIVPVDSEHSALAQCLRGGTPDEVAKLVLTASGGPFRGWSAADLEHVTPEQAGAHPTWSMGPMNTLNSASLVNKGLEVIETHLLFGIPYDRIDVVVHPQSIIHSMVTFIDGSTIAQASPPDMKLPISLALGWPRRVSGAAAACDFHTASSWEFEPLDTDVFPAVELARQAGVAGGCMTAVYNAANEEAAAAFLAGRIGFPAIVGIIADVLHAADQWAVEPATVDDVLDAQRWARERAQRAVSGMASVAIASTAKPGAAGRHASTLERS

The test system of data set [3] is P. falciparum. As to conditions: earlier work / reference drug; read-out: P. falciparum growth IC50; cited from earlier work.
For a further data set, the system named is HepG2 cells. Briefly: HepG2 cell inhibition (cytotoxicity) assay. As to conditions: for IC50: Homo sapiens. Type of data set: cell-based. The protocol:
For cytotoxicity assays, HepG2 cells (ATCC HB-8065) were grown in DMEM supplemented with 4 mM L-glutamine (Gibco #11966-025) with either 4.5 g/L D-glucose or 1.8 g/L galactose as carbon source. Cells were trypsinized, resuspended in the respective medium (DMEM/glutamine/glucose or DMEM/glutamine/galactose) to 4×10^5 cells/mL and 50 μL/well transferred to flat-bottom white opaque tissue culture plates (Falcon #353296) containing 50 μL/well of the respective medium with test compound. Compound concentrations were two-fold dilutions ranging from 50 μM to 0.049 μM as well as the drug-free DMSO-only control. All concentrations were tested in duplicate for each carbon source. After 24 h incubation at 5% CO2, 37° C., 10 μL/well of Celltiter-Glo reagent (Promega #G9241) was added and luminescence recorded after 20 min incubation in the dark.

The subject of data set [4] is P. falciparum had1 mutant strain. Type of data set: cell-based.
Data set [5] is described as follows: In vivo exposure study in mice. Also on record: species or system Swiss Webster mice. As to the method:
We designed a compound exposure study to determine plasma concentration of 12a under similar conditions to the efficacy study.
Animal care and all procedures were conducted at Charles River Laboratories (Wilmington, Mass.) and performed in accordance with the National Institutes of Health Guide for the Care and Use of Laboratory Animals and approved by the institutional animal care and use committee. […] The suspension was administered to unfasted female Swiss Weber mice (n=3) at 20 mg/kg i.p. Plasma samples (10 μL) were removed at 0.25, 0.5, 1, 2, 4, 6 and 8 h and stored at −80° C. Plasma samples were added to ice cold acetonitrile containing the internal standard, glafenine, as appropriate to bring samples into the standard curve range (50-10,000 ng/ml), then centrifuged for 5 minutes at 3200 rpm and the supernatant transferred to a 96-well sample plate for analysis by liquid chromatography-tandem mass spectrometry. The MRM transitions for glafenine and 12a were m/z: 370.9>296.9 and 180.075>119.9, respectively. A Synergi 4 μm Hydro-RP column (250×4.6 mm, 80 Å) was used for chromatographic separation. Mobile phases were 0.1% formic acid in water and acetonitrile with a flow rate of 1.2 mL/min. The starting phase was 0% acetonitrile for 3 minutes, increased to 60% acetonitrile over 6 minutes. Peak areas were integrated using Analyst Software (AB Sciex, Foster City, Calif.).

Data set [6] can be described thus: Metabolic stability in mouse liver microsomes. The format is in vitro ADME. As to conditions: pH 7.4; mouse liver microsomes, compound 1 μM, 37° C.; read-out: Metabolic stability MLM (t1/2). The protocol:
(§1) In this protocol, the metabolic stability of compounds at 1 μM was determined in mouse liver microsomes (MLM) and mouse plasma. For microsomal stability each test compound was incubated in an aqueous reaction mixture consisting of 0.25 […], 1.2 mM NADPH, 3.3 mM MgCl2, and 100 mM potassium phosphate buffer (pH 7.4). For plasma stability each test compound was incubated in mouse plasma (VWR). After incubation at 37° C. a 50 μL aliquot of the reaction was transferred to 200 μL ice cold acetonitrile containing internal standard (Enalapril, 100 ng/mL). The quenched reaction mixtures were centrifuged at 3200 rpm for 5 min, and 100 μL of the supernatant were transferred to 96-well plate and analyzed by LC-MS/MS using an Applied Biosystems-Sciex API 4000. Analyte/internal standard peak area ratios were used to evaluate stability. […] An Amour C18 column (2.1×30 mm, 5 μm; Analytical Sales and Services, Pompton Plains, N.J.) was used for chromatographic separation. Mobile phases were 0.1% formic acid, 1 mM triethylamine in water and acetonitrile with a flow rate of 0.35 mL/min. The starting phase was 0% acetonitrile increased to 100% acetonitrile over 3 minutes. Peak areas were integrated using Analyst Software (AB Sciex, Foster City, Calif.).
A general note: Microsomes from liver hold many membrane-bound enzymes, among them those of drug oxidation.

The next data set is described as follows: in vitro. Type of data set: in vitro ADME. As to conditions: mouse plasma, compound 1 μM, 37° C.; read-out: Plasma stability (t1/2). As to the method: as §1
Data set [7] concerns the target T1, P. falciparum DXR. The settings on record: background; read-out: P. falciparum DXR IC50; cited from earlier work.
Setting [8] is: Table 6, growth inhibition, read-out: P.f. IC50.
The mark [9] stands for this setting: Table 6, N-acyl analogs, read-out: Pf Dxr IC50.
Setting [10] is: rich media (7H9), read-out: Mtb MIC99 7H9.
Setting [11] is: minimal media (GAST-Fe), read-out: Mtb MIC99 Gast/Fe.

Structures are written as SMILES. Values joined by “and” are separate entries in the source; they are usually repeats but may differ in a detail not shown here. Equal values may be shown once. Read-outs that look alike come from different tables or passages of the source. A value given as a limit tells only on which side of the number the result lay.

As usually defined, the IC50 is the concentration at which inhibition is half-maximal.

`O=C(Cc1ccccc1)N(O)C/C=C/P(=O)([O-])O.[Na+]` [Compound 32b, Sodium hydrogen [(1E)-3-(N-hydroxy-2-phenylacetamido)prop-1-en-1-yl]phosphonate]: the figures for the IC50 in the data set on P. falciparum [1] (setting [8]) and at P. falciparum DXR [2] (setting [9]) were 0.137 µg/mL and 170 nM, respectively. The MIC99 in the data set on Mtb (setting [10]) is more than 100 µg/mL. Also, the “Mtb Dxr (% Residue)” value on Mtb DXR is “(33.6) %”.

Regarding `O=C(CCCc1ccccc1)N(O)C/C=C/P(=O)([O-])O.[Na+]` [Compound 32d, Sodium hydrogen [(1E)-3-(N-hydroxy-4-phenylbutanamido)prop-1-en-1-yl]phosphonate], the values for the IC50 in the data set with P. falciparum [1] (setting [8]) and at P. falciparum DXR [2] (setting [9]) were 1.6 µg/mL and 898 nM, respectively. The MIC99 in the data set with Mtb (setting [11]) and in the data set on Mtb (setting [10]) was more than 100 µg/mL throughout. Moreover, the “Mtb Dxr (% Residue)” value at Mtb DXR is given as “(29.2) %”.

In the case of `O=C(CCc1ccccc1)N(O)C/C=C/P(=O)([O-])O.[Na+]` [Compound 32c, Sodium hydrogen [(1E)-3-(N-hydroxy-3-phenylpropanamido)prop-1-en-1-yl]phosphonate], the half-inhibitory concentration (IC50) with P. falciparum [1] (setting [8]) turned out to be 3.3 µg/mL; on P. falciparum DXR [2] (setting [9]) it was 1340 nM. The MIC99 with Mtb (setting [11]) and in the data set on Mtb (setting [10]) was more than 100 µg/mL throughout. Also, the “Mtb Dxr (% Residue)” value on Mtb DXR was “(62.3) %”.

Consider `C[C@@H]1CC[C@H]2[C@@H](C)C(=O)O[C@@H]3O[C@@]4(C)CC[C@@H]1[C@]32OO4` [artemisinin], for which the IC50 with P. falciparum [3] is 10.4 nM.

On to `O=C(c1ccccc1)N(O)C/C=C/P(=O)([O-])O.[Na+]` [Compound 32a, Sodium hydrogen [(1E)-3-(N-hydroxy-1-phenylformamido)prop-1-en-1-yl]phosphonate], for which the 50% inhibitory concentration (IC50) is 0.103 µg/mL in the data set with P. falciparum [1] (setting [8]); more than 50000 nM with HepG2 cells (HepG2, Table 6, cytotoxicity, read-out: HepG2 IC50); 110 nM and 106 nM at P. falciparum DXR [2] (setting [9]). Moreover, the “resistance of had1 parasites compared with wild-type” value in [4] (in words) was “more resistant”. Also, the MIC99 in the data set with Mtb (setting [11]) was 25 µg/mL; with Mtb (setting [10]), more than 50 µg/mL. In addition, on Mtb DXR, the “Mtb Dxr (% Residue)” value is given as “(36.87) %”.

On to `O=CN(O)C/C=C/P(=O)([O-])O.[Na+]` [Compound 12a, Sodium hydrogen [(1E)-3-(N-hydroxyformamido)prop-1-en-1-yl]phosphonate], for which the “plasma concentration at 8 h relative to Pf IC50 of 18a in vitro” value in [5] (after 18a 20 mg/kg i.p.) is recorded as “approximately 200 fold”. Besides, the concentration at 8 h in data set [5] (female, Swiss Webster, mouse, in vivo, 20 mg/kg, read-out: plasma concentration of 12a at 8 h) is 485 ng/mL and 2.8 µM. The IC50 is 19 nM in the data set with P. falciparum [1] (read-out: P. falciparum growth IC50); 19 nM with P. falciparum [1] (read-out: Pf IC50); more than 50000 nM in the data set with HepG2 cells (HepG2, read-out: HepG2 IC50); 92 nM at P. falciparum DXR [2] (read-out: P. falciparum DXR IC50). For the same compound, the “SI^Pf Selectivity Index for P. falciparum” value in the data set with HepG2 cells (HepG2 IC50/P.falciparum IC50) was found to be 2632. In data set [4] (mutant supplied with wild-type copy of HAD1), the “sensitivity in had1+HAD1-GFP strain” value is recorded as “restored”. The “resistance of had1 parasites compared with wild-type 3D7” value in data set [4] (shift of IC50 curve) was determined as 3.4 fold. Further, the half-life at 1 μM was more than 1 h in data set [6] and more than 2 h in “in vitro”.

Consider `CC(=O)N(O)CCCP(=O)(O)O` [FR900098], for which the IC50 on P. falciparum DXR [7] is 24 nM.
